Where “and” joins values, the source holds several entries; their conditions need not be identical. Identical values can stand only once. Like-named read-outs stand apart in the source and are kept apart here.
Test: Total and unbound QST in plasma and normal brain of non-tumor-bearing mice (equilibrium dialysis, LC-MS/MS)
Type: in vivo, athymic nude mice
Method: Insufficient drug exposure in the brain is a major hurdle in the treatment of brain tumors. […] On the last treatment day, blood and intact brains were harvested 2 hours after dosing with QST (Figure 6E). […] Each brain hemisphere was processed separately to perform matched PK and PD analyses from the same animal. […] For PD analyses, we homogenized entire hemispheres to obtain whole-tissue protein lysates from each mouse and assessed changes in histone H3 acetylation levels using immunoblotting.
Our study therefore emphasizes the importance of implementing a PK-PD–guided approach when evaluating or developing new drugs for GBM. Although PK analyses are now commonly performed in preclinical trials for a variety of different brain tumors, these studies typically measure only the total brain-to-plasma concentration ratio as a measure of drug-brain penetration ([74]–[76]). […] Therefore, we employed an equilibrium dialysis method combined with LC-MS/MS analysis to measure the unbound brain-to-plasma concentration, which represents the pharmacologically active fraction of a drug. A crucial finding in our study was the species-specific differences in QST stability. […] A recent study reported that hydroxamic acids such as QST are common substrates of a family of esterases (carboxylesterases) that are abundantly present in rodent plasma but absent in human plasma ([34], [78]). We confirmed that the addition of BNPP, a specific inhibitor of carboxylesterases, stabilized QST in mouse plasma. Our results therefore highlight a large discrepancy in the metabolic stability between rodent and human species. This is an important consideration for translating preclinical studies to the clinic because such differences may hinder further clinical development of promising drug candidates. Our data will thereby serve as a valuable resource and note of caution for future preclinical studies employing QST or similar drugs with species-specific stability.
QST concentrations in specimens were measured using reverse-phase LC on the AB SCIEX QTRAP6500+ LC-MS/MS system by operating electrospray in the positive ion mode. For liquid chromatographic separation, gradient elution was performed using a Phenomenex Kinetex F5 100 Å column (100 × 2.1 mm, 2.6 μm). The initial composition of the mobile phase was 70% phase A (0.1% formic acid in water) and 30% phase B (0.1% formic acid in 1:1 acetonitrile/methanol) with a 0.35 mL/min flow rate. Gradient elution was achieved as follows: mobile phase (B) was maintained at 30% from 0 to 0.3 minutes, increased to 95% from 0.3 to 0.8 minutes, maintained at 95% from 0.8 to 2.5 minutes, and decreased to 30% from 2.5 to 2.8 minutes. The total run time was 3.5 minutes. The internal standard used in this study was D8-infigratinib. The retention times for QST and D8-infigratinib were 1.6 and 1.8 minutes, respectively. Mass-to-charge ratio transitions were as follows: 395.20 → 144.00 (QST) and 568.08 → 321.00 (D8-infigratinib). LC-MS/MS analysis was performed using an Analyst 1.7 Chromatographic Data System. See Supplemental Methods for detailed PK experiments. […]
vortex-mixed for 10 s and centrifuged at 12000 g at 4 °C for 10 min. A 100-µL aliquot of the supernatant was transferred to an autosampler vial, and 5 µL was injected into the LC-MS/MS system for analysis. Whenever necessary, appropriate dilutions were made to accommodate the analysis of small volume samples.
Brain and Brain Tumor Sample Preparation
Normal brain and brain tumor tissue homogenates were prepared by 1:4 (mass/volume) ratio with PBS. Samples were homogenized under 6.00 m/s speed for 40 seconds with 3 cycles by Bead Ruptor Elite homogenizer (Omni International). Plasma was used as a surrogate matrix for brain/tumor homogenate. Brain homogenate samples from in vivo studies were prepared as described for plasma samples. Analyte and IS were extracted by protein precipitation with methanol containing IS. After centrifugation at 12000 rpm for 10 minutes at 4 °C, 5 µL of […]

[1] = normal mice, individual mice, n=6

Q: With `Cn1cc(CNCC2CCN(c3ncc(C(=O)NO)cn3)CC2)c2ccccc21` [QST, quisinostat] as the compound, how does the “mean unbound QST level, fold lower in brain than in plasma” value (10 mg/kg IP MWF 2 weeks, 2 hours after last dose) read?
A: The value was “more than 70 fold”.

Q: What about the concentration at 2 h (athymic nude, mouse, brain, intraperitoneal, 10 mg/kg, normal mouse brains, individual mice, n=6, read-out: Total QST, brain) of the same compound?
A: The concentration at 2 h was 45.3 nM.

Q: What about the concentration at 2 h (athymic nude, mouse, brain, intraperitoneal, 10 mg/kg, normal mouse brains, individual mice, n=6, read-out: Unbound QST, brain) of the same compound?
A: The concentration at 2 h was 1.65 nM.

Q: And the concentration at 2 h (athymic nude, mouse, brain, ip, 10 mg/kg, normal brain, 10 mg/kg IP MWF 2 weeks, 2 hours after last dose, read-out: unbound drug concentration in the brain)?
A: Its concentration at 2 h is ~1.7 nM.

Q: What about the “Total QST, plasma” value [1] of the same compound?
A: Its value is 464.014 nM and 281.833 nM and 297.864 nM and 455.378 nM and 301.853 nM and 226.232 nM.

Q: What about the “UNBOUND [QST], Plasma” value [1] of the same compound?
A: The value was 117.95 nM and 180.33 nM and 119.53 nM and 89.59 nM and 183.75 nM and 111.61 nM.

Q: What about the concentration at 2 h (normal mouse brains, individual mice, n=6, read-out: Total QST, brain) of the same compound?
A: Its concentration at 2 h is 26.24 nM and 32.91 nM and 41.935 nM and 27.27 nM and 31.45 nM.

Q: And the concentration at 2 h (normal mouse brains, individual mice, n=6, read-out: Unbound QST, brain)?
A: Its concentration at 2 h is 2.1 nM and 1.36 nM and 1.57 nM and 2.27 nM and 1.31 nM.
